From patent publication US20260265687A1, “OCULAR ORGANOIDS” (KONINKLIJKE NEDERLANDSE AKADEMIE VAN WETENSCHAPPEN, priority 2023, published 2026)

Key:
[1] = system: Herpes Simplex Virus 1 (HSV1); assay: HSV1 infection of organoid-derived conjunctival ALI cultures, viral titers by qPCR; type: cell-based; details: 10 μM Acyclovir in bottom compartment after virus incubation; 17-day-old human conjunctival ALI cultures; followed 96 hours
Protocol: To model HSV1 infection, we exposed the apical surface of fully differentiated 17-day-old ALI cultures for 3 hours to an HSV1 strain whose capsid protein VP26 was tagged with tdTomato (hereafter called HSV1-tdTomato, FIG. 6A). HSV1 titrer increased by 5 logs over the course of 96 hours after initial incubation with HSV1, implying a productive infection of the conjunctival ALI culture with HSV1 (FIG. 6B). In addition, we observed that the tdTomato signal increased over time in HSV1-infected ALI cultures when imaged using an Auto-EVOS microscope (Thermo Fisher Scientific) (Data not shown). […] Acyclovir, an inhibitor of HSV1 DNA polymerase, is commonly given to patients with HSV1-induced conjunctivitis. Indeed, the infection was blocked when ALI cultures were treated with 10 μM Acyclovir (FIG. 6A-B). Thus, organoid-derived ALI cultures support HSV1 infection and represent a human ocular surface model for HSV1 infection.
Human organoids (5-7 days after split) were harvested, trypsinized to single cells using 0.25% Trypsin/EDTA (ThermoFisher Scientific) for 5 minutes and 100,000 cells were seeded in 100 μL human expansion medium on 6.5 mm-wide transwells (Corning or Greiner). […]
Herpes Simplex Virus 1 containing endogenously tagged […] capsid protein with tdTomato (HSV1-tdTomato) was used. […] Viral titer quantification was performed as indicated below. […]

[2] = system: human Adenovirus 8 (hAdV8); assay: hAdV8 infection of organoid-derived conjunctival ALI cultures, viral titers by qPCR and cytopathic effects; type: cell-based; details: 17-day-old conjunctival ALI cultures, up to 96 hours; for reversal of adenoviral (hAdV8) infection: 10 μM Acyclovir, 60 μM Cidofovir or 20 μM Nelfinavir
From the text: Adenoviruses are the leading cause of viral conjunctivitis. Yet, to date, no medication is available, partly because there is no model system for this type of ocular infection. An hAdV8 strain, isolated from a patient was provided by Dr. Nobuyo Yawata and Dr. Makoto Yawata (Kyushu University, Japan and NUS, Singapore) (see Yawata, N., and Yawata, M. 2022. Assessing the Response of Human NK Cell Subsets to Infection by Clinically Isolated Virus Strains. Methods Mol Biol 2463, 205-220. https://doi.org/10.1007/978-1-0716-2160-8_15). hAdV8 was added to 17-day-old conjunctival ALI cultures (FIG. 6E). Conjunctival ALI cultures were readily infected by hAdV8, as confirmed by the viral titre measured by qPCR (not shown). CPEs were visible starting from 48 hours after infection: infected cells darkened and were extruded from the epithelium. We then tested several antiviral drugs experimentally applied for adenoviral conjunctivitis (Acyclovir, Cidofovir and Nelfinavir) to test their efficacy in blocking the infection.
Human organoids (5-7 days after split) were harvested, trypsinized to single cells using 0.25% Trypsin/EDTA (ThermoFisher Scientific) for 5 minutes and 100,000 cells were seeded in 100 μL human expansion medium on 6.5 mm-wide transwells (Corning or Greiner). Human expansion medium was added to the lower compartment. After 3 to 4 days, when cells had reached confluency, medium from the upper compartment was removed to lift the cultures to air-liquid interface (ALI). The ALI cultures were maintained up to 22 days. The medium in the bottom compartment was changed every 3-4 days.
An hAdV8 strain isolated from a patient was used. Similar to HSV1 infection, hAdV8 at MOI 10 was added to the ALI culture in 50 μL PBS for 3 hours, before being washed away. Every 24 hours, the shed viruses were collected in 100 μL PBS and stored until further processing. If indicated, 10 μM Acyclovir (PHR1254, Sigma-Aldrich), 60 μM Cidofovir (C5874, Sigma-Aldrich) or 20 μM Nelfinavir (PZ0013, Sigma-Aldrich) was added to the bottom compartment after incubating with the virus. hAdV8-infected ALI cultures were kept for up to 4 days and, if required, fixed.
At the time of processing of the pellets for organoids and supernatants for ALI cultures, DNA was extracted using Zymogen Quick-DNA Microprep kit (ZY-D3020, Zymogen). DNA was systematically resuspended in 15 μL nuclease-free water (QIAGEN). Viral DNA was then quantified by qPCR as follow: 5 μL of the DNA extract was mixed together with 5 μL of SYBR green (Bio-Rad) containing HSV1 detection primers (HSV1-F: […] (SEQ ID NO: 13) and HSV1-R: […] (SEQ ID NO: 14)) or hAdV8 detection primers (hAdV8-F: […] (SEQ ID NO: 15) and hAdV8-R: […] (SEQ ID NO: 16). The SYBR green was mixed with 10 μM primer mix at a ratio 10:1. Technical duplicates were assessed by qPCR. The following program was used for viral DNA amplification: 95° C. for 2 minutes, followed by 40 cycles of 98° C. for 15 seconds, 60° C. for 15 seconds and 72° C. for 15 seconds. For quantifying the viral DNA content in ALI supernatants, we amplified 179 bp of HSV1-tdTomato genome using HSV1-F and HSV1-R and 1004 bp of the hAdV8 genome using hAdV8-F and hAdV8-R. We cloned both in a pJet vector (Thermo Fisher Scientific) and used it to make a standard curve ranging from 2.104 to 2.109 copies of viral genome according to Addgene instructions (https://www.addgene.org/protocols/aav-titration-qpcr-using-sybr-green-technology/). […]

| SMILES | HSV1 infection (HSV1 titers detected by qPCR) [1] | reversal of adenoviral (hAdV8) infection [2] | cytopathic effects (CPEs) after hAdV8 infection ([2]; 60 μM Cidofovir) | hAdV8 viral titre (qPCR) ([2]; 60 μM Cidofovir) |
| --- | --- | --- | --- | --- |
| Nc1nc2c(ncn2COCCO)c(=O)[nH]1 [Acyclovir] | blocked | only Cidofovir could reverse adenoviral infection |  |  |
| Nc1ccn(C[C@@H](CO)OCP(=O)(O)O)c(=O)n1 [Cidofovir] |  | could reverse adenoviral infection | absence | decrease |
| Cc1c(O)cccc1C(=O)N[C@@H](CSc1ccccc1)[C@H](O)CN1C[C@H]2CCCC[C@H]2C[C@H]1C(=O)NC(C)(C)C [Nelfinavir] |  | only Cidofovir could reverse adenoviral infection |  |  |
